Data published in patent US20160193202A1, “THERAPEUTIC TREATMENT FOR DRUG POISONING AND ADDICTION” (ADISPELL, INC., priority 2013, published 2016).
Values joined by “and” are separate entries in the source; they are usually repeats but may differ in a detail not shown here. Equal entries are not always repeated. “Also recorded” adds a separate entry of the source. Where two headings read alike, the source gives them in different places.

How the values were obtained:
rats = assay: Morris water maze probe trial with scopolamine; format: in vivo, rat; details: for Morris water maze individual swimming trace, finding of target area: individual rat, FIGS. 1A-1C
From the text: The Morris water maze for rats (San Diego Instruments) uses a 70 inch diameter swimming tank, in which rats, one at a time, are placed to determine the swimming time taken to find a platform, which can be visible or submerged, and is placed randomly in the tank, with its position locatable by means of navigation in response to visible clues. A video camera is positioned to record the swimming path of the rat, and computer analysis of the path permits accurate assessment of elapsed time, distance traveled, and route taken to achieve particular objectives. This technique is used to study memory, learning and spatial working, in healthy, diseased, and drug-affected states. The test can be applied acutely (probe test) or can involve considerable training and repeat measure experimental designs. The term “latency” in the context of the Morris water maze is used to depict the relation of time taken to escape from the water (Morris R., “Development of a Water-Maze Procedure for Studying Spatial Learning in The Rat,” Journal of Neuroscience Methods 11:47-60 (1984) and Wongwitdecha et al., “Effects of Social Isolation Rearing on Learning in the Morris Water Maze,” Brain Research 715:119-124 (1996), both of which are hereby incorporated by reference in their entirety).
This was a single dose probe trial in normal healthy rats with the objective of determining whether: (a) there is an effect in raising cognitive efficiency in unimpaired rats and (b) impairment caused by scopolamine can be reversed by EME.
FIGS. 1A-1C show three individual swimming traces for rats treated with a control vehicle (FIG. 1A), a combined dose of ecgonine methyl ester (EME) (10 mg/kg) and scopolamine (1 mg/kg) (FIG. 1B), and a single dose of scopolamine (1 mg/kg) (FIG. 1C). The target area was in the “south west” or bottom left quadrant of the bath. […] This observation was significant (p<0.05).
The group results in this probe trial with vehicle (VEH), EME alone, scopolamine alone, and EME plus scopolamine in the acute dose Morris water maze experiment are shown in FIG. 2. In particular, column 1 depicts the probe test results for the vehicle, column 2 depicts probe test results for EME alone, column 3 depicts probe test results for scopolamine alone, and column 4 depicts probe test results for EME in combination with scopolamine.

[1] = target: nicotinic acetylcholine receptor (Mus musculus, UniProt P02716+P04756+P04760+P09690); details: cited from earlier work
in vivo = details: rat, brain and plasma, ip, 10 mg/kg
Method: (§1) Plasma and Brain Concentrations after Intraperitoneal Doses—Twenty young adult rats in groups of four were given intraperitoneal doses of 10 mg/kg, and killed and dissected at various times after dosing. Brain and plasma concentrations were assessed by GC-MS. Samples were pre-dose, and at 1, 2, 4 and 24 hours after the dose. Each point is the mean value from four rats.

[2] = Brain and plasma concentrations after 10 mg/kg intraperitoneal doses (GC-MS)
Method: as §1

[3] = target: T1, BC3H1 nicotinic acetylcholine receptor (Mus musculus, UniProt P02716+P04756+P04760+P09690); details: 100 μM carbamoylcholine, cited from earlier work
T1 construct: endogenous in cells; host or cells: BC3H1 cells

mice = mice pretreated with EME 50 mg/kg, 126 mg/kg cocaine five minutes later; survivors/animals; cited from earlier work
[4] = range where effects of multiple Class 1 compounds were alleviated, read-out: KD(Alv)
[5] = read-out: KD(Alv), range where effects of multiple Class 1 compounds were alleviated

nicotinic acetylcholine receptor, sequence (P04756 21-457): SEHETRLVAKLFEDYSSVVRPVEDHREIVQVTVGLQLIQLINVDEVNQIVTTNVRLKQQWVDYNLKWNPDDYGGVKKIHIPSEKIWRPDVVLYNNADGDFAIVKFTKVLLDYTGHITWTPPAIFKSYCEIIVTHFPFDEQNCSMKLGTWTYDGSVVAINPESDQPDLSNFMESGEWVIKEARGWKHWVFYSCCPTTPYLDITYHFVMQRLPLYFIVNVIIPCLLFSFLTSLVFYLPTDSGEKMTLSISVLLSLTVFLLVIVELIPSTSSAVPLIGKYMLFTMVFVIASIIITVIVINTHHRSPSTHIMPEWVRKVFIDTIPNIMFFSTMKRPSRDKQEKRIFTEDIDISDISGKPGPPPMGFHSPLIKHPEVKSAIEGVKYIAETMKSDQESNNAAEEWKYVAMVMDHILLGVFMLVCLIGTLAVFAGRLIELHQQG
nicotinic acetylcholine receptor, sequence (P09690 24-501): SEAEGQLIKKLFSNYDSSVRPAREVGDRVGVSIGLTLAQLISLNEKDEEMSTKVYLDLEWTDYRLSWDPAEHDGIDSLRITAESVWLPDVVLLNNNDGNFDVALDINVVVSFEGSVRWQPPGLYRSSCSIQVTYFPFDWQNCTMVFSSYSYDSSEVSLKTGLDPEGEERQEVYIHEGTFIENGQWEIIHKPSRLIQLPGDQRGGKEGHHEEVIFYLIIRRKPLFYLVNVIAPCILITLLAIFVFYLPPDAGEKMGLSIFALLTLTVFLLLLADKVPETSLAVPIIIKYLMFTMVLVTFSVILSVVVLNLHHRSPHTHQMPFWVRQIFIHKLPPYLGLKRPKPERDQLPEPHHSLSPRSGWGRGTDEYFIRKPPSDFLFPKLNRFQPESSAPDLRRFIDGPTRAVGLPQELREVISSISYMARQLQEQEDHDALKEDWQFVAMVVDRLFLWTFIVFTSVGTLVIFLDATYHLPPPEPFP
nicotinic acetylcholine receptor, sequence (P04760 23-519): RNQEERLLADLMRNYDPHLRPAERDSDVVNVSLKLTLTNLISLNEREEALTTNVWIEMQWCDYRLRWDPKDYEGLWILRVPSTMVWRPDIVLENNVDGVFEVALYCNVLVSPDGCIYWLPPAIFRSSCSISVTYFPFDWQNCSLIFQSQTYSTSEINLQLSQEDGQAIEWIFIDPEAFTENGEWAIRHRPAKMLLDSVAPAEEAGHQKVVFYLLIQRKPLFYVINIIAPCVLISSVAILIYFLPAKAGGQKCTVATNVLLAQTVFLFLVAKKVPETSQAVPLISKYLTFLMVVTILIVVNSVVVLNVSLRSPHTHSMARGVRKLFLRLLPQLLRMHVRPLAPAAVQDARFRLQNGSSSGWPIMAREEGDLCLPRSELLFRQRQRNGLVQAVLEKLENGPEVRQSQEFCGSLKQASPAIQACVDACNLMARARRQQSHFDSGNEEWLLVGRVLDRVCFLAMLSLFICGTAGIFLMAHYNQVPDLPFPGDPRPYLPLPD
nicotinic acetylcholine receptor, sequence (P02716 25-520): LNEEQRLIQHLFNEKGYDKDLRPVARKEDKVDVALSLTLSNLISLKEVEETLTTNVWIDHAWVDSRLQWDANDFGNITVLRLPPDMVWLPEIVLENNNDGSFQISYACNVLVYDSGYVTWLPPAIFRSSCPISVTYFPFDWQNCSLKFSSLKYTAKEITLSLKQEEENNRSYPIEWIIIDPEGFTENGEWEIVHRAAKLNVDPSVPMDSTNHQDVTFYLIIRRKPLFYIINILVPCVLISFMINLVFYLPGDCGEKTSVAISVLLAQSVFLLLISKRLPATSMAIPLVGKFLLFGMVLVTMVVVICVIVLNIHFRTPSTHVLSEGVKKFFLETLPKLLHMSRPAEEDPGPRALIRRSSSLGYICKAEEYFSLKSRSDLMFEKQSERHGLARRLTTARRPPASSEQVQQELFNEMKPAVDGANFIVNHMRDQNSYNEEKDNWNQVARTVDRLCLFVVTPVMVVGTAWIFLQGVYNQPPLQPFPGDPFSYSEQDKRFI
T1 sequence (P04756 21-457): as the sequence (P04756 21-457) above
T1 sequence (P09690 24-501): as the sequence (P09690 24-501) above
T1 sequence (P04760 23-519): as the sequence (P04760 23-519) above
T1 sequence (P02716 25-520): as the sequence (P02716 25-520) above

Question: Which “Morris water maze individual swimming trace, finding of target area” value (rats) does the source give for `CN1[C@@H]2C[C@@H](OC(=O)[C@H](CO)c3ccccc3)C[C@H]1[C@@H]1O[C@@H]12` [scopolamine, reference compound] here?
Answer: showed no preference

Question: And the “Morris water maze probe test, group result” value (rats; scopolamine alone (1 mg/kg), group size 10, p<0.05)?
Answer: showed the impairment

Question: With `COC(=O)C1C(OC(C)=O)CC2CCC1N2C` (stereo not shown) [3.Acetoxy EME, 3-Acetoxy EME] as the molecule, how does the Kd [1, 4] read?
Answer: 3.3 µM

Question: For `CN1C2CC(S(=O)(=O)c3ccccc3)C1C(C(=O)O)=C(c1ccccc1)C2=O` (stereo not shown) [RCS-111-218], which Kd [1, 4] is on record?
Answer: 5 µM

Question: For `COC(=O)C1C(O)CC2CCC1N2C` (stereo not shown) [EME, ecgonine methyl ester], which Kp (in vivo) is on record?
Answer: ~10

Question: And the Kd [1, 5]?
Answer: 0.8 to 12.7 µM

Question: What about the “Predicted half-life in humans” value ([2]; predicted from persistence in rats) of the same molecule?
Answer: 6 to 8 h

Question: And the “Absorption after the IP dose” value ([2]; rat, 10 mg/kg IP)?
Answer: rapid absorption

Question: What about the “Decay of plasma concentrations” value ([2]; rat, 10 mg/kg IP) of the same molecule?
Answer: biexponential decay

Question: What about the “Time of maximal brain concentration” value ([2]; rat, 10 mg/kg IP) of the same molecule?
Answer: 2 h

Question: What about the “Time of peak plasma concentration” value ([2]; rat, 10 mg/kg IP) of the same molecule?
Answer: already peaked at one hour

Question: What about the Brain penetration ([2]; rat, in vivo) of the same molecule?
Answer: readily penetrates the brain

Question: And the “Alleviation of cocaine inhibition of the nicotinic acetylcholine receptor” value ([3]; cocaine present (200 μM for EME))?
Answer: Alleviation of cocaine inhibition

Question: What about the “Morris water maze probe test, group result, reversal of scopolamine impairment” value (rats; EME (10 mg/kg) combined with scopolamine (1 mg/kg), single dose, group size 10) of the same molecule?
Answer: reversed the scopolamine effect; also recorded: restore function impaired by scopolamine

Question: What about the “Morris water maze probe test, group result versus controls” value (rats; EME alone, single dose, normal healthy rats, group size 10) of the same molecule?
Answer: no effect on its own

Question: And the “Morris water maze individual swimming trace, finding of target area” value (rats)?
Answer: found the target area

Question: And the Survival (mice)?
Answer: increased survival and 9/40

Question: For `COC(=O)C1=C(c2ccccc2)C(=O)C2CC(S(=O)(=O)c3ccccc3)C1N2C` (stereo not shown) [RCS-111-202A], which Kd [1, 4] is on record?
Answer: 2.8 µM

Question: For `COC(=O)C1=CC(=O)C2CC(S(=O)(=O)c3ccccc3)C1N2C` (stereo not shown) [RCS-111-140A], which Kd [1, 4] is on record?
Answer: 0.8 to 8.2 µM

Question: And the Kd ([1]; unit inferred, read-out: KD(alv))?
Answer: 0.8 µM

Question: With `CN1C2CCC1C(C(=O)O)C(O)C2` (stereo not shown) [Ecgonine, ecgonine] as the molecule, how does the Kd [1, 5] read?
Answer: 3.5 µM

Question: For `CN1C2CCC1C(C(=O)O)C(c1ccc(Cl)cc1)C2` (stereo not shown) [RTI Compound], which Kd [1, 5] is on record?
Answer: 0.7 to 14 µM

Question: And the Kd ([1]; read-out: KD(alv), unit inferred)?
Answer: 0.7 µM

Question: With `CN1C2CC(S(=O)(=O)c3ccccc3)C1C(C(=O)O)=CC2=O` (stereo not shown) [RCS-111-143] as the molecule, how does the Kd [1, 4] read?
Answer: 3.3 µM

Question: With “aptamer 3: Class 2 RNA aptamer, SEQ ID NO:56 (AGUAGGAAUACCCCCAUCCAAAGCUCGCUAGGCUGAACAC; RNA, backbone not given here)” as the molecule, how does the “Effect on whole-cell current generated by carbamoylcholine” value ([3]; 5 μM aptamer, −60 mV, 22° C., pH 7.4, no inhibitor) read?
Answer: no effect
